Experimental data taken from PubChem BioAssay AID1963833 (Molecular Pharmacology Branch, DTP, NCI, 2024).
Several values for one entry are separate records, joined by “and”; a condition that tells them apart may be missing. Equal values may be shown once.

Tested on: 883617-216-R-J1-PDC complex spheroid viability
Experiment: Anticancer human tumor 883617-216-R-J1-PDC patient-derived bladder carcinoma cell line growth inhibition [POLQ]
Conditions: for viability, T/C: stronger effect = lower value
Description: Multicellular complex tumor spheroid response to Polymerase (POL) inhibitors (novobiocin, ART-558, RP6685) in combination with a variety of drugs and investigational agents in selected tumor cell lines
The POL inhibitors (novobiocin, ART-558, and RP6685) were evaluated both individually and in combination with standard of care and investigational anticancer small molecules within a complex spheroid model of solid tumors. . Complex spheroids include a stromal component modeled by human endothelial cells (HUVEC) and fibroblasts modeled by human mesenchymal stem cells (MSCs). The concentration ranges selected for each drug and investigational agent were based upon clinically achievable concentrations if the clinical Cmax of the agent was known.
Compounds. The drugs and investigational agents: novobiocin (NSC847541), ART-558 (NSC835418), RP-6685 (NSC848927), peposertib (NSC802822), ceralasertib (NSC780249), elimusertib (NSC800525), camonsertib (NSC841442), AZD-1390 (NSC803789), olaparib (NSC753686), talazoparib (NSC767125), rucaparib (NSC756644), sotorasib (NSC818433), MRTX-1133 (NSC836407), SN-38 (NSC673596), topotecan (NSC609699), epotoside (NSC141540), doxorubicin (NSC123127), gemcitabine (NSC613327), 5-fluorouracil (NSC19893), paclitaxel (NSC125973), vemurafenib (NSC761431), MSA-2 (NSC828583), SN-011 (NSC837082), adavosertib (NSC754352), prexasertib (NSC758257), carboplatin (NSC241240) and oxaliplatin (NSC266046), were obtained from the National Cancer Institute (NCI) Developmental Therapeutics Program Chemical Repository (21). The FDA-approved anticancer drug set is available from the Developmental Therapeutics Program at https://dtp.cancer.gov/organization/dscb/obtaining/. […] The stock solutions were prepared in dimethyl sulfoxide (DMSO, Sigma-Aldrich, St. Louis, MO, cat. D2650), except for the platinum compounds which were prepared in saline (Quality Biological, Gaithersburg, MD, cat. 114-055-101), at 800-fold the tested concentration and stored at -70 degrees C prior to their use. All drugs and investigational agents were tested over a range starting from a high concentration at or near the clinical Cmax and decreasing in half-log increments. If the clinical Cmax for an agent had not been determined, the highest concentration tested was 10 microM, except for SN-38, which was tested at a high concentration of 1 microM.
Cell Culture. All cells were maintained in an incubator at 37 degrees C and 5% CO2 with 95% humidity. The PDC lines were cultured according to standard operating procedures established by the NCI PDMR (https://pdmr.cancer.gov). Table 3 of the manuscript, lists the cell lines along with the number of the three cell types plated to form the mct-spheroids and media for tumor cell growth. After thawing, all PDC lines, except 997537-175-T-J1-PDC and 415267-285-R-J2-PDC, were cultured in Matrigel-coated flasks prepared with a working solution of 1X Ham's F-12 nutrient mix, without supplementation (Thermo Fisher Scientific, cat. 11765054), 100 U/mL penicillin-streptomycin (Thermo Fisher Scientific, cat. 15140122), and 2.5% Matrigel (Corning Inc., Corning, NY, cat. 354248) for the first three passages. The two PDC lines 997537-175-T-J1-PDC and 415267-285-R-J2-PDC were cultured on uncoated flasks. The 857933-349-R-J2-PDC line was cultured in 6C/Colon 1B media containing advanced DMEM/F-12 (Thermo Fisher Scientific, cat. 12634028), 10 mM HEPES (Thermo Fisher Scientific, cat. 15630080), 1X GlutaMAX supplement (Thermo Fisher Scientific, cat. 35050061), 0.1 mg/mL primocin (InvivoGen, San Diego, CA, cat. ant-pm-2), 10% defined fetal bovine serum, heat inactivated (HyClone Laboratories Inc., Logan, UT, cat. SH30070.03HI), 50% L-WRN conditioned media (ATCC, cat. CRL-3276), 1.25 mM N-Acetyl-L-cysteine (Sigma-Aldrich, cat. A9165), 10 mM nicotinamide (Sigma-Aldrich, cat. N0636), 1X B-27 supplement (Thermo Fisher Scientific, cat. 17504044), 1X N-2 supplement (Thermo Fisher Scientific, cat. […]

[1] = compound alone, run of 01/08/2024
[2] = compound alone, run of 01/19/2024
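Further: spheroids exposed to compounds for seven days before readout.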
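Wherever viability, T/C is given: 100% = DMSO vehicle control viability.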

IC50 [2] | Compound | viability, T/C (compound 0.00316 µM) | viability, T/C (compound 0.01 µM) | viability, T/C (compound 0.0316 µM) | viability, T/C (compound 0.1 µM) | viability, T/C (compound 0.316 µM) | viability, T/C (compound 1 µM) | IC50 (curve of compound) | viability, T/C (compound 0.00949 µM) | viability, T/C (compound 0.03 µM) | viability, T/C (compound 0.0949 µM) | viability, T/C (compound 0.3 µM) | viability, T/C (compound 0.949 µM) | viability, T/C (compound 3 µM) | viability, T/C (compound 3.16 µM) | viability, T/C (compound 10 µM) | viability, T/C (compound 0.000316 µM) | viability, T/C (compound 0.001 µM) | IC50 [1]
 | C=CCn1c(=O)c2cnc(Nc3ccc(N4CCN(C)CC4)cc3)nc2n1-c1cccc(C(C)(C)O)n1 | 97.5% and 107% and 98.8% | 100% and 96.8% and 90.3% | 100% and 108% and 112% | 107% and 87.8% and 93.7% | 85.4% and 72.3% and 92.5% | 48.6% and 50.2% and 50.6% | 960 nM and > 1000 nM |  |  |  |  |  |  |  |  |  |  | 
 | CC(=O)O[C@H]1C(=O)[C@@]2(C)[C@H]([C@H](OC(=O)c3ccccc3)[C@]3(O)C[C@H](OC(=O)[C@H](O)[C@@H](NC(=O)c4ccccc4)c4ccccc4)C(C)=C1C3(C)C)[C@]1(OC(C)=O)CO[C@@H]1C[C@@H]2O |  |  |  |  |  |  | < 9.49 nM and 13.9 nM | 44.9% and 57% and 43.1% | 32.5% and 35.8% and 26.7% | 22.9% and 26.7% and 15.8% | 30.6% and 21.1% and 24.6% | 28.4% and 23.5% and 25.1% | 26.5% and 19.3% (2×) |  |  |  |  | 
 | CCCS(=O)(=O)Nc1ccc(F)c(C(=O)c2c[nH]c3ncc(-c4ccc(Cl)cc4)cc23)c1F |  |  | 107% and 115% and 95.1% | 95.8% (2×) and 89.8% | 102% and 90.4% and 116% | 105% and 107% and 95.2% | 9880 nM and 8910 nM and 7500 nM |  |  |  |  |  |  | 79.3% and 101% and 95.3% | 49.6% and 44.3% and 34.8% |  |  | 
 | CC[C@@]1(O)C(=O)OCc2c1cc1n(c2=O)Cc2cc3c(CN(C)C)c(O)ccc3nc2-1 | 104% and 94.3% and 91.6% | 83.4% and 88.9% and 88.8% | 65.8% and 77.7% and 65.3% | 53.6% and 63.2% and 48.6% |  |  | > 100 nM and 89.8 nM |  |  |  |  |  |  |  |  | 97.3% and 105% and 101% | 92.3% and 95.7% and 97% | 
 | CCc1c2c(nc3ccc(O)cc13)-c1cc3c(c(=O)n1C2)COC(=O)[C@]3(O)CC | 60.2% and 77.9% and 72.8% | 56.4% and 60.8% and 57.2% | 59.9% and 65.7% and 60.6% | 48.4% and 64.6% and 47.4% | 33.3% and 41.8% and 31.2% | 18.5% and 31.8% and 23.8% | 95 nM and 220 nM and 63.1 nM |  |  |  |  |  |  |  |  |  |  | 
 | CNCc1ccc(-c2[nH]c3cc(F)cc4c3c2CCNC4=O)cc1 |  |  | 92.6% and 94.5% and 97.7% | 92% and 95.6% and 100% | 96.7% and 92.8% and 89.4% | 96.9% and 93.2% and 104% | > 10000 nM |  |  |  |  |  |  | 95.2% and 98.2% and 99.7% | 77.3% and 88.2% and 74.5% |  |  | 
 | COC1C(OC(N)=O)C(O)C(Oc2ccc3c(O)c(NC(=O)c4ccc(O)c(CC=C(C)C)c4)c(=O)oc3c2C)OC1(C)C (stereo not given) |  |  | 98.8% [middle of 13 runs] | 99.7% [middle of 13 runs] |  | 103% [middle of 13 runs] |  |  |  |  |  |  |  | 100% [middle of 12 runs] |  |  |  | > 10000 nM
 | COc1cc(C2c3cc4c(cc3C(OC3OC5COC(C)OC5C(O)C3O)C3COC(=O)C23)OCO4)cc(OC)c1O (stereo not given) |  |  | 99.9% and 95.2% and 109% | 86.2% and 78.2% and 89.1% | 85.3% and 96.4% and 83.7% | 63.6% and 76.7% and 66.2% | 8180 nM and > 10000 nM |  |  |  |  |  |  | 61.5% and 67.9% and 60% | 47.5% and 57.3% and 49.9% |  |  | 
 | COc1cccc(OCCCN)c1-c1cc(Nc2cnc(C#N)cn2)n[nH]1 | 98.3% and 89.8% and 106% | 69.9% and 82.7% and 93.2% | 52.6% and 55.5% and 49% | 40.9% and 44.4% and 45.3% | 34.2% and 34.5% and 41.7% | 25% and 30.4% and 35.5% | 40.6 nM and 57 nM and 31.2 nM |  |  |  |  |  |  |  |  |  |  | 
 | COc1cccc2c1C(=O)c1c(O)c3c(c(O)c1C2=O)CC(O)(C(=O)CO)CC3OC1CC(N)C(O)C(C)O1 (stereo not given) |  |  | 61.8% and 66.7% and 64% | 56.7% and 69.8% and 55.9% | 51.5% and 57.7% and 47.7% | 10.3% and 22.2% and 5.53% | 328 nM and 412 nM and 248 nM |  |  |  |  |  |  | 0.4% and 0.3% and 0.29% | 0.27% and 0.25% and 0.3% |  |  | 
> 10000 nM | Cc1cccc(N(C)C(=O)C2C(O)CCN2c2nc(C)cc(C(F)(F)F)c2C#N)c1 (stereo not given) |  |  | 102% [middle of 13 runs] |  | 99.2% [middle of 13 runs] | 100% [middle of 13 runs] |  |  |  |  |  |  |  | 101% [middle of 13 runs] | 105% [middle of 13 runs] |  |  | > 10000 nM
 | Cn1ncnc1[C@H]1c2n[nH]c(=O)c3cc(F)cc(c23)N[C@@H]1c1ccc(F)cc1 | 87.6% and 95.6% and 95.1% | 83.5% and 90% and 77.4% | 70% and 80.9% and 83.5% | 65.7% and 71.8% and 69.7% |  |  | > 100 nM |  |  |  |  |  |  |  |  | 94.7% and 100% and 90.6% | 85.8% and 100% and 85.9% | 
> 10000 nM | Nc1ccc(C#CCN(C(=O)Cc2ncc(C(F)(F)F)cc2C(F)(F)F)c2ccc(F)cc2)nn1 |  |  | 102% [middle of 13 runs] | 98% [middle of 13 runs] | 102% [middle of 13 runs] | 99.9% [middle of 13 runs] |  |  |  |  |  |  |  | 104% [middle of 13 runs] | 112% [middle of 13 runs] |  |  | 
 | Nc1ccn(C2OC(CO)C(O)C2(F)F)c(=O)n1 (stereo not given) |  |  | 32.7% and 33% and 32.6% | 30.6% and 36.1% and 29.3% | 32.9% and 36.7% and 46.2% | 39.7% and 42.4% and 33.9% | < 31.6 nM |  |  |  |  |  |  | 36.2% and 41.4% and 31.7% | 26.8% and 42.1% and 30.9% |  |  | 
 | O=C(c1cc(Cc2n[nH]c(=O)c3ccccc23)ccc1F)N1CCN(C(=O)C2CC2)CC1 |  |  | 88.1% and 93% and 83.1% | 82.1% and 100% and 97.3% | 92.3% and 104% and 81.8% | 87.4% and 87.5% and 87.9% | > 10000 nM |  |  |  |  |  |  | 91% and 82.4% and 88.4% | 58.5% and 61.9% and 69.8% |  |  | 
 | O=c1[nH]cc(F)c(=O)[nH]1 |  |  | 108% and 102% and 103% | 89.4% and 107% and 89.8% | 109% and 106% and 81.9% | 88.9% and 89.1% and 97.6% | > 10000 nM |  |  |  |  |  |  | 79.5% and 85.3% and 88.3% | 65.1% and 78.3% and 64.8% |  |  | 
